Laboratory results taken from patent publication US11597911B2, “Expansion of populations of T cells by the use of modified serum free media” (Life Technologies Corporation, priority 2017, dated 2023).

How the values were obtained:
Primary human T cells = experiment: T cell expansion in serum-free medium with glucose, galactose or mixtures; assay type: cell-based; conditions: final sugar 6 g/L; lipid concentrate 1:100; CD3/CD28 beads; counted days 5-12; FIG. 3
From the text: FIG. 3 is a graph depicting that galactose alone is suboptimal for human T cell expansion. Primary human T cells from normal donors were negatively isolated from PBMCs with DYNABEADS® UNTOUCHED™ Human T Cells kit. T cells (seeding density 1×10^6/mL) were activated with DYNABEADS® Human T-Expander CD3/CD28 at a ratio of 3 beads per T cell and cultured in serum-free medium supplemented with GIBCO™ Chemically Defined Lipid Concentrate (1:100) and either d-glucose, d-galactose or mixtures of glucose and galactose as indicated; final concentration of sugar was 6 g/L in all conditions. T cells were fed and counted on days 5, 7, 10 and 12 on a Beckman-Coulter ViCell analyzer. Cell expansion is expressed as cumulative viable T cells over time. Results are representative of at least 3 independent experiments.
Primary human T cells from normal donors were negatively isolated from PBMCs with DYNABEADS® UNTOUCHED™ Human T Cells kit. […] T cells were fed and counted on days 5, 7, 10 and 12 on a Beckman-Coulter ViCell analyzer. Cell expansion is expressed as cumulative viable T cells over time. […]

[1] = tested on: Naïve and Central Memory CD4+ T cells; experiment: Expansion and cytokine production of sorted CD4+ T cell subsets in limited glucose:galactose media; assay type: cell-based, human; conditions: in the presence of low glucose; FIG. 21
From the text: Bulk CD4+ T cells were sorted into Tregs, Naïve, Tcm (central memory), and Tem (effector memory) subsets based on the markers CD25, CD45RA, CD62L, and CCR7. Based on FIG. 20, T cells of different subpopulations may be sorted through use of FACS. […] Expanded naïve CD4+ T cells preserve the naïve phenotype when grown in limited glucose, as witnessed through FACS analysis (see FIG. 22 and FIG. 23).
While good expansion of T cells can be achieved in media containing multiple ratios of glucose and galactose, ratios with limiting glucose can have a negative impact in interferon gamma production. There is evidence that interferon-gamma expression is regulated via GAPDH in T-cells (Chang, et al Cell. 2013 June 6; 153(6): 1239-1251) thus excessively limiting glycolysis during T cell expansion can impair IFN-γ production. […] Central memory T cells appear not to be effected by glucose level. […] Primary human CD4+ T cells from normal donors isolated via negative selection were obtained from UPenn Human Immunology Core Facility. Cells were separated by flow cytometric sorting into Naïve (CD45RA+/CD27+/CCR7+), and Central Memory (CD45RA−/CD27+/CCR7+), subsets. […] T cells were fed and counted on days 5, 7, 10 and 12 on a Beckman-Coulter Multisizer 3. […]

Compound: O=C[C@H](O)[C@@H](O)[C@@H](O)[C@H](O)CO [D-galactose]
- in vitro T cell expansion (cumulative viable T cells over time) (Primary human T cells): not sufficient to support optimal in vitro T cell expansion
- expansion of naïve T cells [1]: high rate of expansion
